Key:
HL-60 cells [1] = test: NBT reduction assay of differentiation in HL-60 cells; type: cell-based, human; settings: for NBT reduction, Decitabine alone (%) / NBT reduction, ATRA alone (%): 4 days; for NBT (%): 10 days; for cells differentiated, NBT reduction assay: HL-60 cells, 4 days (FIG. 3)
From the text: The NBT screen works due to changes in the oxidoreductases during differentiation that lead to increases in rates of NBT reduction. NBT is reduced due to the production of superoxide that is catalyzed by an NADPH oxidase. […] A quantitative NBT reduction assay is ideal for this type of screen as it is simple, sensitive, quantitative, requires minimal cells, has been proven to have low well to well variability, and the amount of reduced NBT is proportional to the number of cells reducing the dye as well as the amount reduced by each cell.
(§1) […] […] Differentiation is determined in the 96 well plates by incubating the cells with 1 mg/ml of NBT and 200 ng/ml of PMA as the stimulant for the respiratory burst for 35 minutes at 37° C. The reaction can then be stopped with HCL and the formazan will be solubilized with DMSO. Finally, the reaction mixture will be read spectrophotometricaly at 560 nm in a plate reader.
as §1, with “will” for “can”
The assays are done using the colorimetric process. The NBT reduction assay measures the respiratory burst and is done by stimulating the respiratory burst in cells with PMA and then looking for a color change in the NBT dye.

HL-60 cells [2] = test: Flow cytometry of CD11b and CD14 cell surface markers; type: cell-based, human; settings: for CD11b positive / CD14 positive: 4 days
Experimental: HL-60 cells were treated with the indicated compounds for 4 days, the cells were stained with CD11b-PE and CD14-FITC, and flow cytometric analysis was performed.

GABA A receptor = settings: compared with securinine; cited from earlier work
HL-60 cells [3] = test: Morphology, cytospin with Wright-Giemsa stain; type: cell-based, human; settings: 4 days
Experimental: HL-60 cells were treated with the indicated compounds for 4 days. Cytospin preparations were prepared and the cells were stained with Wright-Giemsa stain.

HL-60 cells [4] = test: Cell cycle, propidium iodide flow cytometry; type: cell-based, human; settings: 4 days
Experimental: HL-60 cells were treated with the indicated compounds for 4 days and the cells were stained with propidium iodide and analyzed by flow cytometry.

c-myc = c-myc expression by real time PCR in HL-60 cells; type: cell-based, human; settings: 1, 3, or 5 days
Experimental: (§2) FIG. 11 illustrates graphs showing securinine and 6BT downregulate c-myc expression and upregulate CEBPB. HL-60 cells were treated with the indicated compounds for 1, 3, or 5 days and total RNA was prepared. The relative expression of c-myc and CEPβ was determined by real time PCR.

[5] = known; cited from earlier work
[6] = Toxicity, tolerability and seizures in mice
Experimental: (§3) In order to further assess the in vivo potential of 6BT and Securinine, mouse xenograft experiments were performed. In the first model, the ability of 6BT and Securinine to inhibit established HL-60 subcutaneous leukemic tumor growth in nude mice was assessed. […] In the second model system, the ability of 6BT to prevent either HL-60 or MV-411 tumor formation in nude mice was assessed.
(§4) This Example assed the effects of securinine and its analogues in mice. […] HL-60 cell is an AML cell line commonly used for in-vitro studies and typically they are classified as M2 subtype. […] Therefore this was the highest dose that could be safely utilized.
We performed a preliminary test with the two most promising analogues, compound 2A and compound 2B to verify their safety.

OCI-AML3 cells = test: NBT reduction assay in OCI-AML3 cells; type: cell-based; settings: 4 days
Experimental: The two most promising compounds (compound 2A and compound 2B) were further tested for their differentiation activity in several additional AML cell lines as compared to securinine (FIG. 17). […] In all three cell lines tested, a dose of only 2.5 uM of compound 2B was sufficient to induce nearly complete differentiation.
The above indicated cells were treated for 4 days and the NBT reduction assay was performed. The X-axis refers to the cell treatments and the Y-axis denotes the percentage of differentiation as measured by the NBT Reduction assay.

Bcl-2 = Bcl-2 Western blot in HL-60 cells; type: cell-based, human; settings: 1, 3, or 5 days
Experimental: (§5) HL-60 cells were treated with the indicated compounds for 1, 3, or 5 days and cells were lysed. Western blot analysis was performed with p21, Bcl-2, and actin antibodies.

p44/p42 and p38 = test: Phospho-specific Western blot of p44/p42 and p38 in HL-60 cells; type: cell-based, human; settings: 15 to 60 minutes
Experimental: FIG. 13 illustrates an immunoblot showing 6BT and Securinine activate both p44/p42 and p38. HL-60 cells were treated with the indicated compounds for 15, 20, 46, or 60 minutes and the cells were lysed. Western blot analysis was performed with phospho-specific antibodies to p44/p42 and p38 as well as the actin anibody.

[7] = tested on: HL-60 subcutaneous tumors; test: Established HL-60 subcutaneous tumor xenograft in nude mice; type: in vivo
Experimental: Nude mice (5 per experimental group) were injected with 5×10^7 HL-60 cells bilaterally into the flank. 9 days after tumor cell inoculation, the indicated drugs were injected I.P. three times a week for 3 weeks. […] Representative picture of the mice at the end of the study period (B). Representative picture of tumors dissected from the indicated mice. (C). Average weights of tumors dissected from all mice (D).
as §3, §4
Next we repeated the mouse xenograft experiments using i.p. drug administration (20 mg/kg), but with twice a day dosing again using HL-60 cell tumors.
Securinine (20 mg/kg) or vehicle ([…]) was injected i.p. into mice starting 10 days after HL-60 cell inoculation bilaterally into the flanks of nude mice (5 mice per group).

p38delta = test: Gene expression (microarray, real time PCR) in HL-60 cells; type: cell-based, human
Experimental: FIG. 14 illustrates graphs showing 6BT and securinine regulate the expression of genes that may play important roles in myeloid differentiation. HL-60 cells were treated with the indicated compounds for 1 or 3 days and total RNA was prepared. The relative expression of the indicated genes was assessed by real time PCR.
In order to further assess the signaling pathways of 6BT and securinine as well as to further elucidate the myeloid differentiation program in general, gene microarray studies were performed. These initial studies assessed the gene expression pattern at 16 and 72 hours after treatment. […] Several of these genes are known to be involved in the differentiation of non-hematopoietic cells such as neuron, muscle, and or keratinocyte differentiation. Selected examples of genes whose expression is strongly regulated by securinine and 6BT that have been verified is seen in […].

p21 = p21 Western blot in HL-60 cells; type: cell-based, human; settings: 1, 3, or 5 days
Experimental: as §5

60 cancer cell lines = settings: highest concentration used 100 μM; cited from earlier work
CEBPβ = CEBPβ expression by real time PCR in HL-60 cells; type: cell-based, human; settings: 1, 3, or 5 days
Experimental: as §2

[8] = tested on: normal human lymphocytes, normal human bone marrow, mouse embryonic fibroblasts, and human umbilical vein endothelial cells; test: Toxicity on normal cells; type: cell-based
From the text: In order to further assess the toxicity of 6BT and Securinine, normal human lymphocytes, normal human bone marrow, mouse embryonic fibroblasts, and human umbilical vein endothelial cells were examined.

[9] = tested on: primary patient leukemic samples; test: Differentiation and cell death in other AML cell lines and primary patient leukemic samples; type: cell-based, human
Experimental: FIGS. 7(A-B) illustrate 6BT and securinine have potent differentiation and cell death effects on primary leukemic samples. Primary patient leukemic samples were stained with CD34+ and sorted by flow cytometry. Leukemic cells were treated with the indicated compounds (6BT […]) for up to 7 days. A. Representative pictures showing morphological differentiation of primary patient samples B. 6BT and Securinine treated primary leukemic cells show either differentiation by NBT reduction or cell death.
In several cases, the compounds were able to induce a higher amount of differentiation than ATRA. It should be noted, that though ATRA is only clinically useful for APL, it is well known to potently induce the differentiation of many other AML cell lines in vitro. […] Though the exact mechanisms are not yet clear, certain leukemic cells appear to preferentially undergo cell death in response to 6BT and Securinine prior to full differentiation.
We then tested the effects of securinine on patient samples. […] Unfortunately, many of the patient samples were not suitable for analysis. A significant portion of the cells that were obtained were either nonviable or contaminated with bacteria.

## Nc1ncn([C@H]2C[C@H](O)[C@@H](CO)O2)c(=O)n1 [Decitabine, reference compound]
HL-60 cells [1]; Decitabine 10 ng/ml
  NBT reduction, Decitabine alone (%): 14%
HL-60 cells [1]; Decitabine 50 ng/ml
  NBT reduction, Decitabine alone (%): 23%
HL-60 cells [1]; Decitabine 100 ng/ml
  NBT reduction, Decitabine alone (%): 26%

## C=C1/C(=C\C=C2/CCC[C@]3(C)[C@@H]([C@H](C)CCCC(C)(C)O)CC[C@@H]23)C[C@@H](O)C[C@@H]1O [Vitamin D, 1,25-dihydroxyvitamin D3, reference compound]
HL-60 cells [2]; 100 nM
  CD11b positive: 90%
  CD14 positive: 65%

## O=C1C=C2C=C[C@H]3C[C@]2(O1)[C@@H]1CCCCN13 [Virosecurinine, virosecurinine]
GABA A receptor
  GABA A receptor affinity: decreased GABA A receptor affinity
HL-60 cells [1]; 0.06 μM
  NBT (%): 20%
HL-60 cells [1]; 1.25 μM
  NBT (%): 30%
HL-60 cells [1]; 2.5 μM
  NBT (%): 50%
HL-60 cells [1]; 5 μM
  NBT (%): 99%
HL-60 cells [1]; 10 μM
  NBT (%): 95%

## Cc1cc(O)nc2cc3oc4ccccc4c3cc12 [Compound 375, 4-methyl[1]benzofuro[3,2-g]quinolin-2-ol]
HL-60 cells [2]; 10 μM
  CD11b positive: 64%
  CD14 positive: 19%
HL-60 cells [3]
  morphologic changes: reproducible, but less pronounced changes
HL-60 cells [4]
  cell cycle phase in which cells accumulate: accumulation in G2/M

## O=C1C=C2C=C[C@@H]3C[C@@]2(O1)[C@@H]1CCCCN31 [Allosecurinine, allosecurinine]
GABA A receptor
  GABA A receptor affinity: decreased GABA A receptor affinity
HL-60 cells [1]; 0.06 μM
  NBT (%): 20%
HL-60 cells [1]; 1.25 μM
  NBT (%): 25%
HL-60 cells [1]; 2.5 μM
  NBT (%): 40%
HL-60 cells [1]; 5 μM
  NBT (%): 50%
HL-60 cells [1]; 10 μM
  NBT (%): 80%

## O=C1C=C2C=C[C@@H]3C[C@@]2(O1)[C@H]1CCCCN31 [Securinine]
c-myc
  c-myc expression: potently downregulate c-myc
[5]
  metabolism in vivo: extremely rapid metabolism in vivo
  seizures: lead to seizures
HL-60 cells [2]; 10 μM
  CD11b positive: 87%
  CD14 positive: 86%
HL-60 cells [2]; with ATRA and decitabine, data not shown
  synergy in upregulation of CD11b: synergize in the upregulation of CD11b
[6]; 20 mg/kg
  toxicity in mice: no evident toxicities
[6]; dose approximately two fold higher than 20 mg/kg
  seizures in mice: lead to seizures
OCI-AML3 cells
  differentiation activity in OCI-AML3 cells: modest differentiation activity
Bcl-2
  Bcl-2 protein level: downregulation of Bcl-2
p44/p42 and p38
  phosphorylation of p44/p42 and p38: rapid phosphorylation of p44/p42 and p38
[7]; 20 mg/kg i.p. twice a day
  average tumor size smaller than vehicle treated mice at end of study: more than 75%
[7]; 20 mg/kg once a day
  effect on growth of HL-60 subcutaneous tumors: could not detect any significant effects
[7]; first model, I.P. three times a week for 3 weeks from day 9
  inhibition of established HL-60 subcutaneous leukemic tumor growth: not Securinine was found to have significant in vivo activity
HL-60 cells [3]
  morphologic changes: clear morphologic changes suggestive of monocytic differentiation
p38delta
  p38delta expression: upregulated
p21
  p21 protein level: upregulated
60 cancer cell lines
  average LD50 across the 60 cancer cell lines: 97 µM
CEBPβ
  CEBPβ expression: time-dependent upregulation of CEBPβ
[8]
  toxicity on normal cells: induced cell death occurred at doses higher than those required for activity on leukemia cells
HL-60 cells [4]
  cell cycle phase in which cells accumulate: accumulation of cells in G0/G1
HL-60 cells [1]
  cells differentiated, NBT reduction assay: ~95%
HL-60 cells [1]; leukemic cells in our studies
  concentration at which significant differentiation or cell death effects upon the leukemic cells occur: ~10 µM
HL-60 cells [1]; low concentrations, NBT reduction assay
  enhancement of differentiation induced by ATRA and decitabine: capable of enhancing the differentiation induced by both ATRA and decitabine
[9]
  cell death of specific leukemic cell lines and primary patient samples: quicly undergo cell death
[9]; 6BT 10 mM, Securinine 15 mM, up to 7 days (FIG. 7)
  differentiation of other AML cell lines and primary patient leukemic samples: effective in differentiating other AML cell lines besides HL-60 cells, as well as primary patient leukemic samples
[9]; samples suitable for analysis
  leukemia patient samples in which differentiation was induced: 8 of 10

## CC1=C(/C=C/C(C)=C/C=C/C(C)=C/C(=O)O)C(C)(C)CCC1 [ATRA, all-trans-retinoic acid, reference compound]
HL-60 cells [2]; 1 μM
  CD11b positive: 77%
  CD14 positive: 8%
[7]; 15 mg/kg twice a day
  tumor growth compared to vehicle treated mice: did not show any difference in tumor growth
HL-60 cells [1]; ATRA 3 nM
  NBT reduction, ATRA alone (%): 7%
HL-60 cells [1]; ATRA 9 nM
  NBT reduction, ATRA alone (%): 9%
HL-60 cells [1]; ATRA 26 nM
  NBT reduction, ATRA alone (%): 16%
HL-60 cells [1]; ATRA 80 nM
  NBT reduction, ATRA alone (%): 37%
HL-60 cells [1]; ATRA 250 nM
  NBT reduction, ATRA alone (%): 59%
HL-60 cells [1]
  cells differentiated, NBT reduction assay: ~95%
